Data set [1] can be described thus: Inhibition of Staphylococcus aureus TMK assessed as decrease in ATP production using dTDP and ADP as substrate after 3.5 hrs by luciferin/luciferase based luminescence analysis.
The test system of data set [2] is Staphylococcus aureus. Put plainly: Antibacterial activity against methicillin-resistant and quinolone-resistant Staphylococcus aureus ARC 517 assessed as growth inhibition by broth microdilution method. In kind it is functional. Background: Dilution methods test growth across graded concentrations, often in twofold steps.
Data set [3] is described as follows: Octanol-sodium phosphate buffer partition coefficient, log D of the compound at pH 7.4 by shake-flask method.
The nature of data set [4]: Retention time of the compound by LC-MS method. In kind it is physicochemical.
In data set [5] the test system is Staphylococcus aureus. Put plainly: Antibacterial activity against Staphylococcus aureus ARC 516 assessed as growth inhibition by broth microdilution method. The class given is functional.
Data set [6] is described as follows: In vivo clearance in Wistar rat at 5 to 10 mg/kg, iv administered as bolus dose. The class given is ADME, organism-based. On the set-up: dose 5-10 mg/kg, route intravenous.
A short description of data set [7]: Fraction unbound in human plasma at 10 uM after 5 hrs by rapid equilibrium dialysis method. In kind it is ADME, cell-free. (Equilibrium dialysis compares concentrations on both sides of a semipermeable membrane.)
A short description of data set [8]: Fraction unbound in mouse plasma at 10 uM after 5 hrs by rapid equilibrium dialysis method. In kind it is ADME, cell-free.

Results on 34 molecules are retold here after ChEMBL document CHEMBL3297666, “Antibacterial inhibitors of Gram-positive thymidylate kinase: structure-activity relationships and chiral preference of a new hydrophobic binding region” (J Med Chem, 2014).

Each structure is given as a SMILES string.

Regarding `COc1c(CN2CCC[C@H](n3cc(C)c(=O)[nH]c3=O)C2)ccc(C(=O)O)c1Oc1cccc(Cl)c1`, the IC50 (in general, the concentration needed to halve the response being measured) in data set [1] was determined as 0.01 µM. The results for the MIC with Staphylococcus aureus [2] and in the data set with Staphylococcus aureus [5] were 16 mg/L and 8 mg/L, respectively. The logD – broadly, lipophilicity at a set pH, counting ionised and neutral species – in data set [3] is -0.77. For the same molecule, the Retention_time in data set [4] is 2.17 min.

As for `Cc1cn([C@H]2CCCN(Cc3ccc(C(=O)O)c(Oc4cccc(Cl)c4)c3)C2)c(=O)[nH]c1=O`, in data set [1], the half-inhibitory concentration (IC50) worked out at 0.073 µM. The MIC with Staphylococcus aureus [2] and in the data set on Staphylococcus aureus [5] was 32 mg/L in each case.

In data set [4], `CCC(c1ccc(C(=O)O)c(Oc2cccc(Cl)c2)c1OC)N1CCC[C@H](n2cc(C)c(=O)[nH]c2=O)C1` (some centres undefined) returned a Retention_time of 2.29 min.

`Cc1cn([C@H]2CCCN(Cc3cccc(Oc4cc(F)cc(Cl)c4)c3)C2)c(=O)[nH]c1=O`: the IC50 in data set [1] was found to be 2.06 µM.

Regarding `CC[C@H](c1ccc(C(=O)O)c(Oc2cccc(Cl)c2)c1F)N1CCC[C@H](n2cc(C)c(=O)[nH]c2=O)C1`, the IC50 in data set [1] stood at 0.002 µM. Besides, the clearance (in general, the volume of plasma or blood freed of the substance per unit of time) in data set [6] was found to be 7.14 L/h/kg. Further, the fraction unbound (in general, free concentration divided by total concentration) at 5 h, 10 µM in data set [7] is less than 0.01. Besides, the minimum inhibitory concentration (MIC) with Staphylococcus aureus [2] and with Staphylococcus aureus [5] was 2 mg/L throughout. Also, the logD in data set [3] came to 0.12. The Retention_time in data set [4] is reported as 1.75 min.

`Cc1cn([C@H]2CCCN(C(CC(C)C)c3ccc(C#N)c(Oc4cccc(Cl)c4)c3F)C2)c(=O)[nH]c1=O` (some centres undefined): in data set [4], the Retention_time came to 2.62 min.

Take `CCC[C@@H](c1ccc(C(=O)O)c(Oc2cccc(Cl)c2)c1)N1CCC[C@H](n2cc(C)c(=O)[nH]c2=O)C1`: in data set [1], the half-maximal inhibitory concentration (IC50) worked out at 0.018 µM. Further, the MIC with Staphylococcus aureus [2] and with Staphylococcus aureus [5] was 4 mg/L each time.

In the case of `CCC[C@@H](c1ccc(C(=O)O)c(Oc2cccc(Cl)c2)c1F)N1CCC[C@H](n2cc(C)c(=O)[nH]c2=O)C1`, the IC50 in data set [1] came to 0.003 µM. The same molecule came in with a clearance in data set [6] of 1.08 L/h/kg. In addition, the fraction unbound at 5 h, 10 µM in data set [7] and in data set [8] was 0.007 throughout. For the same molecule, the MIC (usually the lowest concentration that inhibits growth of the organism) stood at 0.5 mg/L in the data set on Staphylococcus aureus [2] and 1 mg/L in the data set with Staphylococcus aureus [5]. The same molecule gave a logD in data set [3] of 0.51. In data set [4], this molecule registered a Retention_time of 1.86 min.

In the case of `CCC(c1ccc(Br)c(Oc2cccc(Cl)c2)c1OC)N1CCC[C@H](n2cc(C)c(=O)[nH]c2=O)C1` (some centres undefined), the Retention_time in data set [4] is recorded as 2.41 min.

For the molecule `Cc1cn([C@H]2CCCN(C(CC(C)C)c3ccc(C#N)c(F)c3F)C2)c(=O)[nH]c1=O` (some centres undefined), the Retention_time in data set [4] is 1.93 min.

`COc1c(CN2CCC[C@H](n3cc(C)c(=O)[nH]c3=O)C2)cccc1Oc1cc(F)cc(Cl)c1`: the IC50 in data set [1] is 0.474 µM. The Retention_time in data set [4] is on record as 3 min.

In data set [4], `Cc1cn([C@H]2CCCN(C(CC(C)C)c3ccc(Br)c(F)c3F)C2)c(=O)[nH]c1=O` (some centres undefined) yielded a Retention_time of 3.1 min.

As for `CCC[C@H](c1ccc(C(=O)O)c(Oc2cccc(Cl)c2)c1OC)N1CCC[C@H](n2cc(C)c(=O)[nH]c2=O)C1`, in data set [1], the IC50 came to 0.03 µM. The molecule further registered a fraction unbound at 5 h, 10 µM in data set [7] of 0.034. For the same molecule, the MIC in the data set with Staphylococcus aureus [2] and in the data set with Staphylococcus aureus [5] was greater than 16 mg/L in each case. Besides, the logD in data set [3] was found to be 0.08. The Retention_time in data set [4] was 2.18 min.

Molecule `O=Cc1cccc(O)c1F` showed a Retention_time in data set [4] of 1.23 min.

For the molecule `Cc1cn([C@H]2CCCN(Cc3cccc(Oc4cccc(Cl)c4)c3F)C2)c(=O)[nH]c1=O`, the IC50 in data set [1] is 0.086 µM. In data set [4], the Retention_time turned out to be 2 min.

In the case of `Cc1c(CN2CCC[C@H](n3cc(C)c(=O)[nH]c3=O)C2)cccc1Oc1cc(F)cc(Cl)c1`, in data set [1], the IC50 came to 9.26 µM. Besides, the Retention_time in data set [4] is 2.3 min.

For `CC(C)CC(O)c1ccc(Br)c(F)c1F` (centres undefined), the Retention_time in data set [4] is reported as 3.24 min.

Consider `Cc1cn([C@H]2CCCN(Cc3cccc(Oc4cc(F)cc(Cl)c4)c3Br)C2)c(=O)[nH]c1=O`, for which the IC50 in data set [1] was 0.581 µM. The molecule further came in with a Retention_time in data set [4] of 2.34 min.

Take `Cc1cn([C@H]2CCCN(Cc3cccc(Oc4cc(F)cc(Cl)c4)c3Cl)C2)c(=O)[nH]c1=O`: the half-maximal inhibitory concentration (IC50) in data set [1] was determined as 0.779 µM. The molecule further came in with a Retention_time in data set [4] of 2.31 min.

In the case of `CCCc1c(CN2CCC[C@H](n3cc(C)c(=O)[nH]c3=O)C2)cccc1Oc1cc(F)cc(Cl)c1`, the IC50 in data set [1] was 67.4 µM. Further, the Retention_time in data set [4] was determined as 2.5 min.

Take `Cc1cn([C@H]2CCCN(Cc3ccc(C(=O)O)c(Oc4cccc(Cl)c4)c3F)C2)c(=O)[nH]c1=O`: the IC50 in data set [1] was 0.012 µM. In addition, the MIC in the data set with Staphylococcus aureus [2] came to 16 mg/L; with Staphylococcus aureus [5], 32 mg/L. Also, the logD in data set [3] was -0.59. This molecule also came in with a Retention_time in data set [4] of 1.89 min.

Take `CC[C@@H](c1ccc(C(=O)O)c(Oc2cccc(Cl)c2)c1F)N1CCC[C@H](n2cc(C)c(=O)[nH]c2=O)C1`: in data set [1], the IC50 amounted to 0.003 µM. For the same molecule, the fraction unbound at 5 h, 10 µM in data set [7] is 0.011. The MIC was 1 mg/L in the data set on Staphylococcus aureus [2] and 4 mg/L in the data set on Staphylococcus aureus [5]. The logD in data set [3] was determined as 0.11. The molecule further returned a Retention_time in data set [4] of 1.72 min.

On to `CCC[C@@H](c1ccc(C(=O)O)c(Oc2cccc(Cl)c2)c1OC)N1CCC[C@H](n2cc(C)c(=O)[nH]c2=O)C1`, for which, in data set [1], the IC50 came out at 0.004 µM. The molecule further gave a fraction unbound at 5 h, 10 µM in data set [7] of 0.065. The MIC in the data set on Staphylococcus aureus [2] came out at 4 mg/L; with Staphylococcus aureus [5], 8 mg/L. In data set [3], this molecule had a logD of 0.13.

Take `CC[C@H](c1ccc(C(=O)O)c(Oc2cccc(Cl)c2)c1OC)N1CCC[C@H](n2cc(C)c(=O)[nH]c2=O)C1`: the IC50 in data set [1] came out at 0.069 µM. In data set [6], this molecule had a clearance of 5.04 L/h/kg. Further, the figures for the unbound share (fraction unbound) at 5 h, 10 µM in data set [7] and in data set [8] were 0.015 and 0.006, respectively. Moreover, the MIC in the data set on Staphylococcus aureus [2] and with Staphylococcus aureus [5] was greater than 16 mg/L in each case. In data set [3], this molecule registered a log distribution coefficient (logD) of -0.13. In data set [4], the Retention_time is given as 1.55 min.

As for `COc1c(C=O)ccc(Br)c1Oc1cccc(Cl)c1`, the Retention_time in data set [4] came to 3.28 min.

With `CC[C@@H](c1ccc(C(=O)O)c(Oc2cccc(Cl)c2)c1)N1CCC[C@H](n2cc(C)c(=O)[nH]c2=O)C1`, the IC50 in data set [1] was determined as 0.018 µM. Also, the results for the MIC in the data set with Staphylococcus aureus [2] and with Staphylococcus aureus [5] were 4 mg/L and 2 mg/L, respectively. In data set [3], this molecule showed a logD of 0.22.

`Cc1cn([C@H]2CCCN(Cc3cccc(Oc4cccc(Cl)c4)c3)C2)c(=O)[nH]c1=O`: in data set [1], the IC50 was 1.17 µM.

Consider `CCC[C@H](c1ccc(C(=O)O)c(Oc2cccc(Cl)c2)c1)N1CCC[C@H](n2cc(C)c(=O)[nH]c2=O)C1`, for which, in data set [1], the IC50 is 0.008 µM. Further, the MIC in the data set on Staphylococcus aureus [2] and with Staphylococcus aureus [5] was 1 mg/L in each case.

Take `Cc1cn([C@H]2CCCN(Cc3cccc(Oc4cccc(Cl)c4)c3C#N)C2)c(=O)[nH]c1=O`: in data set [1], the IC50 is 1.19 µM. The Retention_time in data set [4] turned out to be 2.16 min.

With `Cc1cn([C@H]2CCCN(C(CC(C)C)c3ccc(C(=O)O)c(Oc4cccc(Cl)c4)c3F)C2)c(=O)[nH]c1=O` (some centres undefined), the Retention_time in data set [4] is reported as 1.99 min.

Take `O=Cc1cccc(Oc2cccc(Cl)c2)c1F`: the Retention_time in data set [4] came to 2.88 min.

Turning to `CCC[C@H](c1ccc(C(=O)O)c(Oc2cccc(Cl)c2)c1F)N1CCC[C@H](n2cc(C)c(=O)[nH]c2=O)C1`, in data set [1], the IC50 turned out to be 0.006 µM. Also, in data set [6], the clearance is 3.84 L/h/kg. For the same molecule, in data set [7], the fraction unbound at 5 h, 10 µM was less than 0.01. Further, the figures for the MIC in the data set with Staphylococcus aureus [2] and with Staphylococcus aureus [5] were 1 mg/L and 2 mg/L, respectively. Further, the logD in data set [3] is 0.53. In data set [4], this molecule displayed a Retention_time of 1.84 min.

With `CCC(O)c1ccc(Br)c(Oc2cccc(Cl)c2)c1OC` (centres undefined), the Retention_time in data set [4] is 3.27 min.

Take `CCOc1c(CN2CCC[C@H](n3cc(C)c(=O)[nH]c3=O)C2)cccc1Oc1cc(F)cc(Cl)c1`: the IC50 in data set [1] worked out at 0.625 µM. The same molecule gave a Retention_time in data set [4] of 2.32 min.
